Where a chain is given by its changes, count along the chain named.
Columns and labels:
Assay in all cases: direct fluorescence titration (ex […] nm, em […] nm), nonlinear regression
Format in all cases: binding
Mus m 1.0102 [1] = target: T1, Mus m 1.0102 (Mus musculus, UniProt P11589, C175A)
T1 construct: gene Mup2; recombinant lipocalin allergen
T1 sequence (P11589 19-180 C175A): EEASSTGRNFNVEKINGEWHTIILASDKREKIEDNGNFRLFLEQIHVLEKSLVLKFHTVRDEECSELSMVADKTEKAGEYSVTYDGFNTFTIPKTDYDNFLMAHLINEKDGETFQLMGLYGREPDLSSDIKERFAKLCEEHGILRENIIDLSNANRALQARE

Mus m 1.0102 [2] = target: T2, Mus m 1.0102 (Mus musculus, UniProt P11589); conditions: 20 nM protein, Tris-HCl 10 mM pH 7.2, 25 °C; hydrophobic pocket
T2 construct: gene Mup2; recombinant lipocalin allergen
T2 sequence (P11589 19-180): T1 sequence (P11589 19-180 C175A) with A157C

Mus m 1.0102 [3] = target: T3, Mus m 1.0102 (Mus musculus, UniProt P11589, C156A); conditions: 20 nM protein, Tris-HCl 10 mM pH 7.2, 25 °C; hydrophobic pocket
T3 construct: gene Mup2; recombinant lipocalin allergen
T3 sequence (P11589 19-180 C156A): T1 sequence (P11589 19-180 C175A) with C138A, A157C

Mus m 1.0102 [4] = target: T4, Mus m 1.0102 (Mus musculus, UniProt P11589, C156A/C175A); conditions: 20 nM protein, Tris-HCl 10 mM pH 7.2, 25 °C; hydrophobic pocket
T4 construct: gene Mup2; recombinant lipocalin allergen
T4 sequence (P11589 19-180 C156A/C175A): T1 sequence (P11589 19-180 C175A) with C138A

`c1ccc(Nc2cccc3ccccc23)cc1` [N-Phenyl-1-naphthylamine] showed a Kd (Mus m 1.0102 [1]) of 85.5 ± 13.7 nM, a Kd (Mus m 1.0102 [2]) of 25 ± 1.5 nM and a Kd (Mus m 1.0102 [3]) of 33.8 ± 6.4 nM. The Kd (Mus m 1.0102 [4]) was 45.2 ± 4 nM.
